From patent publication US20080113983A1, “Nicotinic Acetylcholine Receptor Ligands” (AstraZeneca AB, priority 2004, published 2008)

Molecular target: T1, α4 nAChR receptor (Rattus norvegicus, UniProt P09483+P12390)
T1 construct: from tissue; host or cells: rat cortical brain membranes
Assay: Radioligand ([125I]-IPH) binding to rat cortical membranes
Settings: saturation curves fitted to a one site model
Experimental: Assay for affinity at an α4 nAChR receptor by measuring the binding of [^3H]-(-)-nicotine binding to rat cortical membranes.
A procedure modified from Martino-Barrows and Kellar (Mol Pharm (1987) 31:169-174) may be used. Rat cortical brain membranes are prepared as described in the [^125I]α-BTX binding assay, except that a 500-12000×g membrane fraction is prepared. Membranes (30-150 μg) are incubated with 30-100 pM of the epibatidine analog [^125I]-IPH ((+/−)-exo-2-(2-iodo-5-pyridyl)-7-azabicyclo-[2,2,1]heptane) together with test compound in HB for 1 hour at room temperature with gentle shaking. Membranes may be recovered as described for the [^125I]α-BTX binding assay. Non-specific binding may be determined by 100 μM carbachol. Typically specific binding is about 84%.
Analysis of Binding Data Obtained in α7 nAChR or α4 nAChR receptor assays
IC50 values and pseudo Hill coefficients (nH) may be calculated using the non-linear curve fitting program ALLFIT (DeLean A, Munson P J and Rodbard D (1977) Am. J. Physiol., 235:E97-E102). […] Ki values may be estimated using the general Cheng-Prusoff equation:
Ki=[IC50 ]/((2+([ligand]/KD)^n)^1/n−1)
where a value of n=1 is used whenever nH<1.5 and a value of n=2 is used when nH>1.5. To account for variability, assays may be performed in triplicate and variability will typically be ±5%. Ki values may be determined using six to 11 drug concentrations.

T1 sequence (P12390 25-500): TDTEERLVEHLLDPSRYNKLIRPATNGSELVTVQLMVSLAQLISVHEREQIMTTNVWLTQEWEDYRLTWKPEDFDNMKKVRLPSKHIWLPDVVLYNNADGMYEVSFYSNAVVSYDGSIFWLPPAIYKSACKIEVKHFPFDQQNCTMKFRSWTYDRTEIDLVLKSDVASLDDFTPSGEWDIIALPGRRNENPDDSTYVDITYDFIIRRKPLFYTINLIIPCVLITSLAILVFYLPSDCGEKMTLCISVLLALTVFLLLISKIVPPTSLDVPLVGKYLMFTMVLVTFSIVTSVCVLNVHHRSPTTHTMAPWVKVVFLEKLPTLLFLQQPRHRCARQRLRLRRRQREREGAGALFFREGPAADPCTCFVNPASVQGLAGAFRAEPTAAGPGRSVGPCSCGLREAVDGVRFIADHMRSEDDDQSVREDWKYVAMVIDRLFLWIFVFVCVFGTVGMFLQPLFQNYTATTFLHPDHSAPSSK
T1 sequence (P09483 31-630): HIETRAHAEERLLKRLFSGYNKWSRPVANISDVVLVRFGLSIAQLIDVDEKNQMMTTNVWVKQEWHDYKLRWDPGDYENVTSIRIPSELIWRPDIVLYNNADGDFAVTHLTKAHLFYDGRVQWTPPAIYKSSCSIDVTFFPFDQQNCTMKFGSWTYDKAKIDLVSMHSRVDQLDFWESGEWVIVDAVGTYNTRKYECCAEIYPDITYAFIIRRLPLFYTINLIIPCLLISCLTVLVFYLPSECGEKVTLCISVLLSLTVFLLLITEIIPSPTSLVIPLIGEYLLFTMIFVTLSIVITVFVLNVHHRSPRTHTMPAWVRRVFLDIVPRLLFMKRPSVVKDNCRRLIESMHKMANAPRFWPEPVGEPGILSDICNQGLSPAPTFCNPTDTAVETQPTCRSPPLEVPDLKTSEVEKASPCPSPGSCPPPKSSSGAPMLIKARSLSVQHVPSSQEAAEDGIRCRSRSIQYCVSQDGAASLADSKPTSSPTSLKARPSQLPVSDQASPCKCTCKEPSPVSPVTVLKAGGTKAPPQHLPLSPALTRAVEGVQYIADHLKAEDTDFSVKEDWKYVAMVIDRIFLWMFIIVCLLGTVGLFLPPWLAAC

In the case of Ic1ccc(C2CC3CCC2N3)cn1 (racemic) [[^125I]-IPH, (+/−)-exo-2-(2-iodo-5-pyridyl)-7-azabicyclo-[2,2,1]heptane], the Kd is reported as 0.064 nM.
